Source: patent US20070082865A1, “Compositions and methods for treatment of airway hypersecretion” (Washington University, priority 2005, published 2007)

Tests used:
[1] = tested on: EGFR signaling (Akt activation); test: Western blot of lung lysates from SeV-inoculated mice treated with EKB-569; assay type: in vivo, C57BL/6J mice
Procedure: Blotting was with the indicated antibodies. Methodology is further described in Examples 1 and 2.
(§1) C57BL/6J and Balb/cJ mice were obtained from The Jackson Laboratory (Bar Harbor, Me.) and were maintained and monitored under pathogen-free conditions for study at 7 wk of age as described previously (Walter et al. (2001); Walter et al. (2002); Tyner et al. (2006) J. Clin. Invest. 116:309-321). SeV (Fushimi Strain 52) was grown in embryonated hen eggs and harvested to provide a viral stock solution such that 5000 EID50 (50% egg infectious dose) was equivalent to 2×10^5 PFU (plaque-forming units). This inoculum or an equivalent amount of UV-inactivated SeV was delivered intranasally in 30 μl PBS under ketamine/xylazine anesthesia. Under these conditions, viral tissue levels are maximal at days 3-5 after infection and viral clearance is complete by day 12 (Walter et al. (2001); Walter et al. (2002); Tyner et al. (2006) J. Clin. Invest. 116:309-321). […] For IL-13 blockade, mice were given subcutaneous injections of soluble murine IL-13Rα2 fused to Fc (slL Example 2: EGFR inhibition decreases aspects of epithelial remodeling 13Rα2-Fc; obtained from Deborah Donaldson, Wyeth Ayerst; 200 μg/mouse in PBS) or control Fc on days 12, 14, 17, and 20 post-infection (Donaldson (1998) J. Immunol. 161, 2317).

[2] = tested on: airway epithelium (ciliated, Clara and goblet cells); test: Quantitative morphometry of airway epithelial cell types (β-tubulin, CCSP, MUC5AC immunostaining) after SeV inoculation; assay type: in vivo, C57BL/6J mice
From the text: Values represent mean+SEM, and a significant difference from SeV-UV control is indicated by (*). Methodology is further described in Example 2.
FIG. 24 is a bar graph showing quantitative analysis of β-tubulin (ciliated cells), CCSP (Clara cells), and MUC5AC (goblet cells) immunostaining in airways of mice infected with SeV and treated with slL-13 receptor antagonist (slL-13Ra2-Fc) or control IgG from on days 12, 14, 17, and 20 after inoculation. Bars=20 μm. A significant difference from corresponding IgG treatment is indicated by (*). Methodology is further described in Example 4.
as §1
Mouse lung was fixed by intraracheal instillation of 4% paraformaldehyde at 25-cm H2O pressure. After overnight fixation at 4° C., tissue was embedded in paraffin, and cut into 3-μm thick sections for hematoxylin/eosin or immunostaining.
For immunostaining, tissue sections were deparaffinized, rehydrated in graded alcohol and encircled with a hydrophobic film (ImmEdge PEN, Vector laboratories, Burlingame, Calif.). […] EGFR was detected using rabbit-antihuman EGFR antibody SC-03 from Santa Cruz Biotechnology (Santa Cruz, Calif.) directed against amino acid residues 1005-1016 that are identical to corresponding sequence in murine EGFR. Phosphorylated EGFR (p-EGFR) was detected using rabbit anti-phospho-EGFR (Tyr845) antibody #2231 from Cell Signaling Technology Inc. (Beverly, Mass.) directed against phosphorylated Tyr^845. […]

[3] = tested on: ciliated epithelial cells in mouse tracheal epithelial cell (mTEC) cultures; test: Ciliated cell survival in mTEC cultures (β-tubulin staining cells as % of total Hoechst-staining cells); assay type: cell-based; conditions: treatment for 7 days
[4] = tested on: EGFR-dependent signals (p-EGFR, p-Akt, p-ERK1/2); test: Western blot of EGF-stimulated mTEC cultures with or without inhibitor; assay type: cell-based, mouse; conditions: basic medium then EGF stimulation, inhibitor at maximal effective concentration
[5] = tested on: mouse tracheal epithelial cell (mTEC) cultures; test: Apoptosis in mTEC cultures (active caspase 3, TUNEL); assay type: cell-based; conditions: mTEC with EGFR signaling blockade plus z-VAD-fmk (100 μM)
Procedure: Bar=20 μm. Methodology is further described in Example 3.
FIGS. 13A and 13B are bar graphs showing quantitative analysis of FIG. 12 for activate caspase-3 staining cells (expressed as % of total Hoechst staining cells) using treatment conditions from FIG. 12 as well as PD15305 plus zVAD-fmk (100 μM). Values represent mean+SEM, and a significant difference from vehicle alone is indicated by (*). Methodology is further described in Example 3.
AIRWAY EPITHELIAL CELL CULTURE AND TREATMENT.
IMMUNOCYTOCHEMISTRY. Cultured cells were washed twice with PBS at 4° C., fixed in 4% paraformaldehyde for 10 min. at 25° C., washed with PBS, and permeabilized with ethanol:acetic acid (2:1, vol/vol) for 5 min at −20° C. for TUNEL reaction or with 0.2% Triton-X for 5 min at 25° C. for immunostaining. Permeabilized cells were then washed with PBS and subjected to the TUNEL reaction (Intergen, Purchase, N.Y.) or blocked with 2% fish gel 1 h at 25° C. and incubated with rabbit anti-active caspase 3 (BD Biosciences, San Diego, Calif.), rabbit anti-EGFR (Santa Cruz Biotechnology, Santa Cruz, Calif.), rabbit anti-p-EGFR (Cell Signaling Technology, Inc., Beverly, Mass.), mouse anti-β-tubulin-IV or rabbit anti-β-tubulin (Sigma, St. Louis, Mo.) antibodies overnight at 4° C. Primary antibody binding was detected with goat anti-mouse or donkey anti-rabbit FITC or CY3 secondary antibody. […]

[6] = SeV, EGFR inhibitor daily post-infection days 10-21, read at day 21

In the case of `CCOc1cc2ncc(C#N)c(Nc3ccc(F)c(Cl)c3)c2cc1NC(=O)/C=C/CN(C)C` [EKB-569], the “Akt activation in whole mouse lung” value ([1]; 20 mg/kg by gavage daily, post-infection days 10-21, day 21 post-infection) is reported as “full inhibition”, the “EGFR signaling in vivo” value ([1]; oral, each day from post-inoculation day 10 through day 21) is reported as “blocked EGFR signaling” and the Clara cell decreases [2, 6] is reported as “complete blockade”. For the same molecule, the ciliated cell increases [2, 6] was “complete blockade”, the goblet cell metaplasia [2, 6] was “partial but significant inhibition” and the “total number of airway epithelial cells (cytokeratin-staining cells)” value ([2]; post-inoculation day 21, vehicle 133±3) was 137±5 per mm basement membrane.

For `COc1cccc(-c2cc(=O)c3ccccc3o2)c1N` [PD98059], the “loss of ciliated epithelial cells” value [3] was “only treatment with LY294002 caused a similar loss” and the “phosphorylation of ERK1/2” value [4] was “blocked”.

`COc1cc2ncnc(Nc3cccc(Br)c3)c2cc1OC` [PD153035] was tested, and the “loss of ciliated epithelial cells” value [3] was “dose-dependent loss of ciliated cells” and the “downstream EGFR signals” value [4] was “blocked all downstream signals”.

For “z-Val-Ala-Asp fluoromethylketone [z-VAD-fmk]”, the “TUNEL-positive cells undergoing apoptosis” value [5] was “blocked”.
